Measured values as given in US20240174648A1, “Small Molecule Compound” (Technoderma Medicines Pte Ltd, priority 2019, published 2024).

Columns and labels:
[1] = biological target: Tyk2 (Homo sapiens, UniProt P29597); test: JAK kinase inhibition assay (EZ Reader, peptide substrate phosphorylation) - Tyk2; assay type: biochemical; conditions: Tyk2 kinase 1 nM; 8 concentration points, max 10 μM
Description: (§1) Assay for Identifying Inhibitory Effects of Compounds on JAK Kinases
(§2) Janus kinases (JAK), including JAK1, JAK2, JAK3 and Tyk2, transduce a cytokine-mediated signal through a JAK-STAT pathway. The kinases are 120-140 kDa in size and have 7 determined homology regions: JH1 to JH7. JH1 is an important region for enzymatic activity and has typical characteristics of tyrosine kinases. Phosphorylation of tyrosine leads to a change in the conformation of JAK protein, thereby promoting binding of substrate. The JAK-STAT system includes three main parts: receptors penetrating a cell membrane, Janus kinases binding to the receptors, and signal transducers and activators of transcription (STAT) for transmitting signals to a nucleus and DNA. When cytokines bind to receptors, JAK phosphorylates the receptors and attracts STAT proteins. The STAT proteins are also phosphorylated and combined with one another to form dimers. The dimers enter the nucleus and bind to DNA, thereby leading to gene transcription.
(§3) EZ Reader from PerkinElmer can be used to detect the phosphorylation of polypeptide substrates catalyzed by kinases. The device is based on microfluidic techniques, and can directly detect fluorescently labeled substrates and products. The separation step is achieved by controlling the pressure and electric field strength in the microfluidic chip. In kinase assays, a product conversion ratio is usually controlled to be 20-30%. A biological test is used to identify inhibitory effects of compounds on JAKs.
(§4) Compound powder was dissolved in DMSO, sealed and stored in a freezer under −20° C. The in-house compound Ref1 was used as a positive control for JAK1, JAK2 and Tyk2 tests, and Ref2 was used as a positive control for JAK3 tests.
(§5) S2.8. Assay buffer: 20 mM HEPES buffer, pH 7.4, 10 mM magnesium chloride, 0.01% bovine serum albumin BSA, 0.0005% Tween-20 and 1 mM dithiothreitol solution.
(§6) S2.9. Stop buffer: 180 mM HEPES buffer, 20 mM ethylenediaminetetraacetic acid and 0.2% coating reagent 3.
(§7) S2.10. Separation buffer: 100 mM HEPES buffer, 10 mM ethylenediaminetetraacetic acid, 0.0005% Tween 20, 0.1% coating reagent 3 and 1% dimethyl sulfoxide.
(§8) The compound was dissolved in dimethyl sulfoxide and diluted to 10 mM concentration, a certain volume of solution was taken and diluted to 0.6 mM concentration, 10 μL of the 0.6 mM dilution was added to a 384-well microplate, and then was diluted 3-fold with a total of 8 concentration points.
(§9) Positive control (HPE1): Ref1, final concentration: 10 μM […]
(§10) Negative control (ZPE): DMSO, final content: 1.6%
(§11) Compounds: maximum final concentration: 10 μM; 3-fold dilution, 8 concentration points and 2 duplicates.
(§12) S4.1. 250 nL of the compound was added to each well of the assay microplate by using ECHO, and centrifuged at 1000 rpm for 1 minute.
(§13) S4.2. 5 μL of the assay buffer was added and agitated for a few seconds to fully dissolve the compound.
(§14) S4.3. 5 μL of 3× substrate solution and 5 μL of 3× kinase solution were added and centrifuged at 800 rpm for 1 minute.
(§15) S4.4. Final concentrations of JAK1, JAK2, JAK3 and Tyk2 kinases in the reaction system were 20 nM, 1 nM, 1 nM and 1 nM respectively.
(§16) S4.5. Incubation at room temperature, where kinases had time differences, and different batches of kinases had time differences.
(§17) S4.6. When 20%-30% of the reaction completed, 15 μL of stop buffer was added to stop the reaction, and centrifuged at 1000 rpm for 2 minutes.
(§18) S4.7. The microplates were placed on EZ Reader for reading.
(§19) S4.8. Readings on EZ Reader were calculated by using a peak height, where product conversion ratio (%)=product/(product+substrate)*100.
(§20) 5. Data Processing: IC50 calculation
(§21) A graphing software Xlfit was used to form a concentration curve of the test compound, and an IC50 value was calculated.
(§22) “A” means “≥10 μM”; “B” means “≥1 μM and <10 μM”; “C” means “≥0.1 μM and <1 μM”; and “D” means “<0.1 μM”.

[2] = biological target: JAK1 (Homo sapiens, UniProt P23458); test: JAK kinase inhibition assay (EZ Reader, peptide substrate phosphorylation) - JAK1; assay type: biochemical; conditions: JAK1 kinase 20 nM; 8 concentration points, max 10 μM
JAK1, sequence (P23458 whole entry): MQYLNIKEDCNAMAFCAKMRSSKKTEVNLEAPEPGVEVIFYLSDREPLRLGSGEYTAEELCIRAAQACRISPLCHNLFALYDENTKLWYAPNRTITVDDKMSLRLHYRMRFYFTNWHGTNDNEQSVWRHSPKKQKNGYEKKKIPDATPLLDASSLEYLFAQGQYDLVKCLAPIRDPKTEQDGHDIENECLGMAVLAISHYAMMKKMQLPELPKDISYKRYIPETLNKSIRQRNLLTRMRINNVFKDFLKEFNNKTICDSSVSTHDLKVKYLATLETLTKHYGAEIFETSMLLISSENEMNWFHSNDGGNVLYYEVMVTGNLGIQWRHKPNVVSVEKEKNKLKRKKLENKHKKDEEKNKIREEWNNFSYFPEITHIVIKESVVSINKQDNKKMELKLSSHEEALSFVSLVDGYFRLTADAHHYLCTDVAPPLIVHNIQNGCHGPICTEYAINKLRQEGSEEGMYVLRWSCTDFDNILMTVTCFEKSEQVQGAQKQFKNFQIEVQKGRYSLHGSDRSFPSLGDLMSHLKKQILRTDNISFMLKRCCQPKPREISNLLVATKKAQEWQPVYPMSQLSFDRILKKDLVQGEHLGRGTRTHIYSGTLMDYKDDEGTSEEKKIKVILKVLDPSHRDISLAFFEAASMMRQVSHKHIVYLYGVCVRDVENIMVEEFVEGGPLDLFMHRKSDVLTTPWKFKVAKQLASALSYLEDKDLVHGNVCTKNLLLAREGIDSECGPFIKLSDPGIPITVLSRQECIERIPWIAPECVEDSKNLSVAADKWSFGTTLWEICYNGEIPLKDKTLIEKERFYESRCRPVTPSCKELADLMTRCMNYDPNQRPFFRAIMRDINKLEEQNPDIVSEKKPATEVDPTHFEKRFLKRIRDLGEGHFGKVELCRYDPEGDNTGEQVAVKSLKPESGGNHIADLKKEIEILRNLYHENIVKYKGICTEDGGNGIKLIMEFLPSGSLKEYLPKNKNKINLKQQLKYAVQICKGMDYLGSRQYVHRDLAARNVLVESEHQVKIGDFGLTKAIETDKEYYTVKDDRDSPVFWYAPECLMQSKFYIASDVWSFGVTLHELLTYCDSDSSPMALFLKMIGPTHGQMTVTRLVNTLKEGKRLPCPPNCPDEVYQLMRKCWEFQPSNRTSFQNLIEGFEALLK
Description: as §1, §2, §3, §4, §5, §6, §7, §8, §9, §10, §11, §12, §13, §14, §15, §16, §17, §18, §19, §20, §21, §22

Tyk2, sequence (P29597 whole entry): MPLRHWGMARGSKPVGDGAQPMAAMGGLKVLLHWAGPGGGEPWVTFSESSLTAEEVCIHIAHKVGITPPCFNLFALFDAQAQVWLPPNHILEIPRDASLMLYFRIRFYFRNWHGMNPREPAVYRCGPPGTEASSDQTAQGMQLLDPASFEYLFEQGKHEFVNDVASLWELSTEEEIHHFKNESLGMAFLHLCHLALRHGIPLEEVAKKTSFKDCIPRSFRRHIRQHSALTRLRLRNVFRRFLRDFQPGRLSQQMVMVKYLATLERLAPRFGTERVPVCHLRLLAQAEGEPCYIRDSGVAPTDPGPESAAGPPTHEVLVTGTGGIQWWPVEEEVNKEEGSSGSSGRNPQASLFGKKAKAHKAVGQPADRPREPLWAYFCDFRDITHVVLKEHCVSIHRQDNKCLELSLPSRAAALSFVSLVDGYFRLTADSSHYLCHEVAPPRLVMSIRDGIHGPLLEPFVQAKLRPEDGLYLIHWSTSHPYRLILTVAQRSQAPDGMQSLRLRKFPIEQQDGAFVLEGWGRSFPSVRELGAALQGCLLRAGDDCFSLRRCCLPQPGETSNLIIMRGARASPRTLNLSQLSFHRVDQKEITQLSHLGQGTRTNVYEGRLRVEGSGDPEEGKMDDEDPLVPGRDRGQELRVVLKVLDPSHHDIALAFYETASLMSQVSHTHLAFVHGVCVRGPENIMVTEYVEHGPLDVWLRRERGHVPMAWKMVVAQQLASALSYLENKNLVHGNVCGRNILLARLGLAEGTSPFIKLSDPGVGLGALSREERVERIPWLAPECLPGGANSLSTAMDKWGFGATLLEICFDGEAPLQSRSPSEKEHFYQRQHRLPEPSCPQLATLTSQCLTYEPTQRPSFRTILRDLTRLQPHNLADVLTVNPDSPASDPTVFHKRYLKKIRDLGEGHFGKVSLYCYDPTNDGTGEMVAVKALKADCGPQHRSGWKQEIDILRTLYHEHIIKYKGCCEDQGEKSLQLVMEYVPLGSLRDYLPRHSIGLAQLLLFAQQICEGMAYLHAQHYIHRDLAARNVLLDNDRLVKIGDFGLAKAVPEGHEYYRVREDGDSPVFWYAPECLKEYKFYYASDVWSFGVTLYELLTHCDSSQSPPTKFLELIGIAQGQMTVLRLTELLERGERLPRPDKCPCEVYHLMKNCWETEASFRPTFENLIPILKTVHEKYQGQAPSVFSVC

Compound | IC50 [1] [µM] | IC50 [2] [µM]
Cc1cc(-c2ccnc(Nc3cnn(C)c3)n2)cnc1NC(=O)C1CC1(F)F (stereo not drawn) [TDM-180906, 2,2-difluoro-N-(3-methyl-5-(2-((1-methyl-1H-pyrazol-4-yl)amino)pyrimidin-4-yl)pyridin-2-yl)cyclopropane-1-carboxamide] | 1 to 10 | 0.1 to 1
Cc1cc(-c2ccnc(Nc3cnn(C)c3)n2)cnc1NC(=O)CC#N [TDM-180907, 2-cyano-N-(3-methyl-5-(2-((1-methyl-1H-pyrazol-4-yl)amino)pyrimidin-4-yl)pyridin-2-yl)acetamide] | 1 to 10 | 1 to 10
Cc1cc(-c2ccnc(Nc3cnn(C)c3)n2)cnc1NC(=O)CC(F)(F)F [TDM-180908, 3,3,3-trifluoro-N-(3-methyl-5-(2-((1-methyl-1H-pyrazol-4-yl)amino)pyrimidin-4-yl)pyridin-2-yl)propanamide] | 1 to 10 | 0.1 to 1
Cc1cc(-c2ccnc(Nc3cnn(C)c3)n2)cnc1NC(=O)C1CC1 [TDM-180910, N-(3-methyl-5-(2-((1-methyl-1H-pyrazol-4-yl)amino)pyrimidin-4-yl)pyridin-2-yl)cyclopropanemethane] | ≥ 10 | 1 to 10
Cn1cc(Nc2nccc(-n3ccc4c(NC(=O)CC5CC5)cccc43)n2)cn1 [TDM-180911, 2-cyclopropyl-N-(1-(2-((1-methyl-1H-pyrazol-4-yl)amino)pyrimidin-4-yl)-1H-indol-4-yl)acetamide] | 1 to 10 | 0.1 to 1
Cn1cc(Nc2nccc(-c3cnc(NS(=O)(=O)Cc4ccccc4)c(F)c3)n2)cn1 [TDM-180913, N-(3-fluoro-5-(2-((1-methyl-1H-pyrazol-4-yl)amino)pyrimidin-4-yl)pyridin-2-yl)-1-phenylmethanesulfonamide] | ≥ 10 | ≥ 10
Cn1cc(Nc2nccc(-c3cnc(NC(=O)C4CC4)cn3)n2)cn1 [TDM-180914, N-(5-(2-((1-methyl-1H-pyrazol-4-yl)amino)pyrimidin-4-yl)pyrazin-2-yl)cyclopropanemethane] | 1 to 10 | 1 to 10
Cn1cc(Nc2nccc(-c3ccc(NC(=O)CC4CC4)c4[nH]ncc34)n2)cn1 [TDM-180917, 2-cyclopropyl-N-(4-(2-((1-methyl-1H-pyrazol-4-yl)amino)pyrimidin-4-yl)-1H-indazol-7-yl)acetamide] | 0.1 to 1 | 0.1 to 1
CCS(=O)(=O)Nc1ncc(-c2ccnc(Nc3cnn(C)c3)n2)cn1 [TDM-180919, N-(2-((1-methyl-1H-pyrazol-4-yl)amino)-[4,5′-bipyrimidin]-2′-yl)ethanesulfonamide] | ≥ 10 | ≥ 10
Cn1cc(Nc2nccc(-c3ccc(NC(=O)CC4CC4)c4[nH]ccc34)n2)cn1 [TDM-180920] | 0.1 to 1 | 0.1 to 1
Cn1cc(Nc2nccc(-c3cnc(NS(=O)(=O)Cc4ccccc4)nc3)n2)cn1 [TDM-180921, N-(2-((1-methyl-1H-pyrazol-4-yl)amino)-[4,5′-bipyrimidin]-2′-yl)-1-phenylmethanesulfonamide] | ≥ 10 | ≥ 10
Cn1cc(Nc2nccc(-c3ccc(NC(=O)CC#N)c4cc[nH]c34)n2)cn1 [TDM-180923] | ≥ 10 | 0.1 to 1
Cn1cc(Nc2nccc(-c3ccc(NC(=O)CC(F)(F)F)c4cc[nH]c34)n2)cn1 [TDM-180924, 3,3,3-trifluoro-N-(7-(2-((1-methyl-1H-pyrazol-4-yl)amino)pyrimidin-4-yl)-1H-indol-4-yl)propanamide] | 1 to 10 | 0.1 to 1
Cn1cc(Nc2nccc(-c3ccc(NC(=O)C4CC4)c4cc[nH]c34)n2)cn1 [TDM-180926, N-(7-(2-((1-methyl-1H-pyrazol-4-yl)amino)pyrimidin-4-yl)-1H-indole-4-yl)cyclopropanecarboxamide] | ≥ 10 | ≥ 10
Cn1cc(Nc2nccc(-c3ccc(NC(=O)C4CC4(F)F)c4cc[nH]c34)n2)cn1 (stereo not drawn) [TDM-180929, 2,2-difluoro-N-(7-(2-((1-methyl-1H-pyrazol-4-yl)amino)pyrimidin-4-yl)-1H-indol-4-yl)cyclopropane-1-carboxamide] | ≥ 10 | 1 to 10
